Reference: PubChem BioAssay AID1963425 (Molecular Pharmacology Branch, DTP, NCI, 2024)

Test system: 323965-272-R-J2-PDC complex spheroid growth, % test/control
Experiment: Anticancer human tumor 323965-272-R-J2-PDC patient-derived pancreatic carcinoma cell line growth inhibition [Asc]
Conditions: for IC50: curve of first compound; for viability, T/C: stronger effect = lower value
Method in brief: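 Complex spheroids combining tumor cells with HUVEC endothelial cells and human MSCs, at 37 degrees C, 5% CO2; agents tested alone or combined, half-log dilutions from at or near clinical Cmax, or 10 microM if Cmax unknown.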

[1] = second compound 0.0316 µM, first compound 0.0316 µM
[2] = second compound 0.0316 µM, first compound 0.1 µM
[3] = second compound 0.0316 µM, first compound 0.316 µM
[4] = second compound 0.0316 µM, first compound 1 µM
[5] = second compound 0.0316 µM, first compound 3.16 µM
[6] = second compound 0.0316 µM, first compound 10 µM
[7] = second compound 0.1 µM, first compound 0.0316 µM
[8] = second compound 0.1 µM, first compound 0.1 µM
[9] = second compound 0.1 µM, first compound 0.316 µM
[10] = second compound 0.1 µM, first compound 1 µM
[11] = second compound 0.1 µM, first compound 3.16 µM
[12] = second compound 0.1 µM, first compound 10 µM
[13] = second compound 0.316 µM, first compound 0.0316 µM
[14] = second compound 0.316 µM, first compound 0.1 µM
[15] = second compound 0.316 µM, first compound 0.316 µM
[16] = second compound 0.316 µM, first compound 1 µM
[17] = second compound 0.316 µM, first compound 3.16 µM
[18] = second compound 0.316 µM, first compound 10 µM
[19] = second compound 1 µM, first compound 0.0316 µM
[20] = second compound 1 µM, first compound 0.1 µM
[21] = second compound 1 µM, first compound 0.316 µM
[22] = second compound 1 µM, first compound 1 µM
[23] = second compound 1 µM, first compound 3.16 µM
[24] = second compound 1 µM, first compound 10 µM
[25] = second compound 3.16 µM, first compound 0.0316 µM
[26] = second compound 3.16 µM, first compound 0.1 µM
[27] = second compound 3.16 µM, first compound 0.316 µM
[28] = second compound 3.16 µM, first compound 1 µM
[29] = second compound 3.16 µM, first compound 3.16 µM
[30] = second compound 3.16 µM, first compound 10 µM
[31] = second compound 10 µM, first compound 0.0316 µM
[32] = second compound 10 µM, first compound 0.1 µM
[33] = second compound 10 µM, first compound 0.316 µM
[34] = second compound 10 µM, first compound 1 µM
[35] = second compound 10 µM, first compound 3.16 µM
[36] = second compound 10 µM, first compound 10 µM
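Note: compound exposure lasted 7 days starting three days after spheroid seeding.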
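Throughout, for viability, T/C: 100% = DMSO vehicle control wells with viability set relative to vehicle.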

Compound: C#Cc1c(F)ccc2cc(O)cc(-c3ncc4c(N5CC6CCC(C5)N6)nc(OCC56CCCN5CC(F)C6)nc4c3F)c12 (stereo unspecified) + Cc1c(S(C)(=O)=O)c(-c2cc(F)cc(N3CCN(c4ccc(NS(=O)(=O)c5ccc(NC(CCN6CCC(C(=O)OCCCP(=O)(O)O)CC6)CSc6ccccc6)c(S(=O)(=O)C(F)(F)F)c5)cc4)CC3)c2)c(-c2ccc(Cl)cc2)n1C(C)C
- IC50 (second compound 0.0316 µM): > 10 µM
- IC50 (second compound 0.1 µM): > 10 µM
- IC50 (second compound 0.316 µM): 8.15 µM
- IC50 (second compound 1 µM): 6.92 µM
- IC50 (second compound 3.16 µM): 4.12 µM
- IC50 (second compound 10 µM): 3.59 µM
- viability, T/C [1]: 99.9%
- viability, T/C [2]: 98.2%
- viability, T/C [3]: 109%
- viability, T/C [4]: 108%
- viability, T/C [5]: 79.4%
- viability, T/C [6]: 58.2%
- viability, T/C [7]: 100%
- viability, T/C [8]: 111%
- viability, T/C [9]: 93.2%
- viability, T/C [10]: 93.2%
- viability, T/C [11]: 75.7%
- viability, T/C [12]: 51.4%
- viability, T/C [13]: 97.8%
- viability, T/C [14]: 99.1%
- viability, T/C [15]: 98.2%
- viability, T/C [16]: 90.6%
- viability, T/C [17]: 73.9%
- viability, T/C [18]: 45%
- viability, T/C [19]: 87.1%
- viability, T/C [20]: 87.9%
- viability, T/C [21]: 88.4%
- viability, T/C [22]: 80.8%
- viability, T/C [23]: 67.9%
- viability, T/C [24]: 41.5%
- viability, T/C [25]: 74.6%
- viability, T/C [26]: 73.8%
- viability, T/C [27]: 80.7%
- viability, T/C [28]: 76.5%
- viability, T/C [29]: 56.2%
- viability, T/C [30]: 29.3%
- viability, T/C [31]: 72%
- viability, T/C [32]: 73.6%
- viability, T/C [33]: 59.9%
- viability, T/C [34]: 72%
- viability, T/C [35]: 50.9%
- viability, T/C [36]: 24.4%

Compound: C=C(F)C(=O)N1CCN(c2nc(OCC3CCCN3C)nc3c2CCN(c2cccc4cccc(Cl)c24)C3)CC1CC#N (stereo unspecified) + Cc1c(S(C)(=O)=O)c(-c2cc(F)cc(N3CCN(c4ccc(NS(=O)(=O)c5ccc(NC(CCN6CCC(C(=O)OCCCP(=O)(O)O)CC6)CSc6ccccc6)c(S(=O)(=O)C(F)(F)F)c5)cc4)CC3)c2)c(-c2ccc(Cl)cc2)n1C(C)C
- IC50 (second compound 0.0316 µM): 4.34 µM
- IC50 (second compound 0.1 µM): 4.22 µM
- IC50 (second compound 0.316 µM): 3.72 µM
- IC50 (second compound 1 µM): 3.41 µM
- IC50 (second compound 3.16 µM): < 0.0316 µM
- IC50 (second compound 10 µM): < 0.0316 µM
- viability, T/C [1]: 70.5%
- viability, T/C [2]: 62.3%
- viability, T/C [3]: 59.3%
- viability, T/C [4]: 62.1%
- viability, T/C [5]: 75%
- viability, T/C [6]: 8.41%
- viability, T/C [7]: 69.7%
- viability, T/C [8]: 61.2%
- viability, T/C [9]: 60.1%
- viability, T/C [10]: 66.7%
- viability, T/C [11]: 72.2%
- viability, T/C [12]: 2.28%
- viability, T/C [13]: 62.3%
- viability, T/C [14]: 52.4%
- viability, T/C [15]: 54.4%
- viability, T/C [16]: 62.2%
- viability, T/C [17]: 60.1%
- viability, T/C [18]: 0.32%
- viability, T/C [19]: 56%
- viability, T/C [20]: 50.8%
- viability, T/C [21]: 51.3%
- viability, T/C [22]: 55.1%
- viability, T/C [23]: 54.1%
- viability, T/C [24]: 0.2%
- viability, T/C [25]: 51.4%
- viability, T/C [26]: 41.2%
- viability, T/C [27]: 45%
- viability, T/C [28]: 41.8%
- viability, T/C [29]: 36.8%
- viability, T/C [30]: 0.16%
- viability, T/C [31]: 44.1%
- viability, T/C [32]: 43.5%
- viability, T/C [33]: 34.5%
- viability, T/C [34]: 41.4%
- viability, T/C [35]: 34.4%
- viability, T/C [36]: 0.16%

Compound: CNC(C)C(=O)NC1CN(S(=O)(=O)c2cccc(S(=O)(=O)N3CCC4CCC(C(=O)NC(c5ccccc5)c5ccccc5)N4C(=O)C(NC(=O)C(C)NC)C3)c2)CCC2CCC(C(=O)NC(c3ccccc3)c3ccccc3)N2C1=O (stereo unspecified) + Cc1c(S(C)(=O)=O)c(-c2cc(F)cc(N3CCN(c4ccc(NS(=O)(=O)c5ccc(NC(CCN6CCC(C(=O)OCCCP(=O)(O)O)CC6)CSc6ccccc6)c(S(=O)(=O)C(F)(F)F)c5)cc4)CC3)c2)c(-c2ccc(Cl)cc2)n1C(C)C
- IC50 (second compound 0.0316 µM): > 1 µM
- IC50 (second compound 0.1 µM): > 1 µM
- IC50 (second compound 0.316 µM): 0.878 µM
- IC50 (second compound 1 µM): 0.745 µM
- IC50 (second compound 3.16 µM): 0.569 µM
- IC50 (second compound 10 µM): 0.324 µM
- viability, T/C (second compound 0.0316 µM, first compound 0.00316 µM): 106%
- viability, T/C (second compound 0.0316 µM, first compound 0.01 µM): 119%
- viability, T/C [1]: 96.3%
- viability, T/C [2]: 103%
- viability, T/C [3]: 99.3%
- viability, T/C [4]: 58.4%
- viability, T/C (second compound 0.1 µM, first compound 0.00316 µM): 107%
- viability, T/C (second compound 0.1 µM, first compound 0.01 µM): 96.6%
- viability, T/C [7]: 98.2%
- viability, T/C [8]: 107%
- viability, T/C [9]: 93%
- viability, T/C [10]: 54.1%
- viability, T/C (second compound 0.316 µM, first compound 0.00316 µM): 96.9%
- viability, T/C (second compound 0.316 µM, first compound 0.01 µM): 90.1%
- viability, T/C [13]: 90.8%
- viability, T/C [14]: 86.1%
- viability, T/C [15]: 93.4%
- viability, T/C [16]: 44.7%
- viability, T/C (second compound 1 µM, first compound 0.00316 µM): 90.2%
- viability, T/C (second compound 1 µM, first compound 0.01 µM): 85.7%
- viability, T/C [19]: 85.7%
- viability, T/C [20]: 76.7%
- viability, T/C [21]: 83%
- viability, T/C [22]: 38.8%
- viability, T/C (second compound 3.16 µM, first compound 0.00316 µM): 79.8%
- viability, T/C (second compound 3.16 µM, first compound 0.01 µM): 70.9%
- viability, T/C [25]: 64%
- viability, T/C [26]: 75.8%
- viability, T/C [27]: 72%
- viability, T/C [28]: 29%
- viability, T/C (second compound 10 µM, first compound 0.00316 µM): 77.4%
- viability, T/C (second compound 10 µM, first compound 0.01 µM): 80.1%
- viability, T/C [31]: 65.8%
- viability, T/C [32]: 59.8%
- viability, T/C [33]: 57%
- viability, T/C [34]: 22.6%
